Here are results for eleven compounds from ChEMBL document CHEMBL6103583, “Purified Monascus Pigments: Biological Activities and Mechanisms of Action” (J Nat Prod, 2025).

Each structure is given as a SMILES string.

One test concerns WiDr. Nature of the test: Antiproliferative activity against human WiDr cells assessed as reduction in cell viability incubated for 72 hrs by MTT assay. It is filed as functional, cell-based.
Conditions: not given
On the technique in general: Tetrazolium assays rely on reduction of a dye to a coloured formazan, in cell work by metabolically active cells.
One may read the IC50 as the concentration needed to halve the response being measured. In the case of `C/C=C/C1=CC2=CC3=C(C(=O)CCCCCCC)C(=O)O[C@@]3(C)C(=O)C2=CO1`, the IC50 amounted to 54.1 µM.

In another test the test system is RAW264.7. In words: Antiinflammatory activity against mouse RAW264.7 cells assessed as inhibition of LPS-NO production by Griess reagent based assay. The test is classed as functional, cell-based.
Conditions: not given
(Griess reagent forms a coloured azo dye with nitrite.)
Take `C/C=C/C1=CC2=C(CO1)C(=O)[C@](C)(O)[C@@H](CC(=O)CCCCC)C2`: the IC50 came to 22.6 µM. Turning to `C/C=C/C1=CC2=C(CO1)C(=O)[C@](C)(O)[C@@H](CC(=O)CCCCCCC)C2`, the IC50 worked out at 19.7 µM.

The next test relates to RAW264.7. Nature of the test: Antiinflammatory activity against mouse RAW264.7 cells assessed as inhibition of LPS-NO production incubated for 24 hrs by Griess reagent based assay. It is filed as functional, cell-based. The note with it: RAW264.7, 24 h.
In the case of `C/C=C/C1=CC2=C/C(=C(/C#N)C(=O)CCCCC)C(C)(O)C(=O)C2=CO1` (centres undefined), the IC50 stood at 2.6 µM.

Take `C/C=C/c1cc2c(cn1)C(=O)[C@](C)(O)[C@@H](CC(=O)CCCCC)C2`: the half-maximal inhibitory concentration (IC50) was 57.1 µM.

On to `C/C=C/C1=CC2=CC3=C(C(=O)CCCCC)C(=O)OC3(C)C(=O)C2=CN1` (centres undefined), for which the IC50 is 12.5 µM.

With `CCCCCCCCCC(=O)[C@H]1C(=O)O[C@]2(C)C(=O)C=C3C=C(CC(C)OC(C)=O)OC=C3[C@H]12` (some centres undefined), the 50% inhibitory concentration (IC50) is 16.6 µM. With `C/C=C/c1cc2c(cn1)C(=O)[C@](C)(O)[C@@H](CC(=O)CCCCCCC)C2`, the IC50 was 74.7 µM. Take `C/C=C/C1=CC2=CC3=C(C(=O)CCCCC)C(=O)OC3(C)C(=O)C2=CN1CCO` (centres undefined): the IC50 came to 27.5 µM. As for `C/C=C/C1=CC2=CC3=C(C(=O)CCCCCCC)C(=O)O[C@@]3(C)C(=O)C2=CO1`, the IC50 was greater than 39.2 µM.

A further test deals with WiDr. Nature of the test: Antiproliferative activity against human WiDr cells assessed as reduction in cell growth incubated for 3 days by MTT assay. The note with it: 72 h. It is filed as functional, cell-based.
On to `C/C=C/C1=CC2=C(CO1)C(=O)[C@](C)(O)[C@@H](CC(=O)CCCCC)C2`, for which the IC50 stood at 55.3 µM. The same measure, in the same setting: the result for `CCCCCC(=O)C[C@@H]1CC(CC(=O)CCC)=C(C)C(=O)[C@]1(C)O` reads 142 µM; that for `C/C=C/C1=CC2=C(CO1)C(=O)[C@](C)(O)[C@@H](CC(=O)CCCCCCC)C2`, 55.8 µM.

For the next test, the system named is HEp-2. Nature of the test: Antiproliferative activity against human HEp-2 cells assessed as reduction in cell viability incubated for 72 hrs by MTT assay. The test is classed as functional, cell-based. The conditions noted are these: HEp-2, 72 h.
For the compound `C/C=C/C1=CC2=CC3=C(C(=O)CCCCCCC)C(=O)O[C@@]3(C)C(=O)C2=CO1`, the IC50 came out at 55.9 µM.

The next test deals with LNCaP. Nature of the test: Antiproliferative activity against human LNCaP cells assessed as reduction in cell viability incubated for 48 hrs by MTT assay. The test is classed as functional, cell-based.
Conditions: not given
In the case of `C/C=C/C1=CC2=C(CO1)C(=O)[C@]1(C)OC(=O)[C@H](C(O)CCCCC)[C@H]1C2` (some centres undefined), the IC50 is 45 µM.

A further test relates to PC-3. In words: Antiproliferative activity against human PC-3 cells assessed as reduction in cell viability incubated for 48 hrs by MTT assay. The note with it: PC-3, 48 h. It is filed as functional, cell-based.
Take `C/C=C/C1=CC2=C(CO1)C(=O)[C@]1(C)OC(=O)[C@H](C(O)CCCCC)[C@H]1C2` (some centres undefined): the IC50 stood at 47 µM.

Another test deals with HEp-2. In words: Antiproliferative activity against human HEp-2 cells assessed as reduction in cell growth incubated for 3 days by MTT assay. The note with it: HEp-2, 72 h. It is filed as functional, cell-based.
Turning to `C/C=C/C1=CC2=C(CO1)C(=O)[C@](C)(O)[C@@H](CC(=O)CCCCC)C2`, the IC50 stood at 77.6 µM. Same read-out and setting: under `CCCCCC(=O)C[C@@H]1CC(CC(=O)CCC)=C(C)C(=O)[C@]1(C)O` stands 124 µM. Turning to `C/C=C/C1=CC2=C(CO1)C(=O)[C@](C)(O)[C@@H](CC(=O)CCCCCCC)C2`, the IC50 is 21 µM.
